Measured values taken from patent US10183039B2, “Methods for the production of collagen IV” (Vanderbilt University, priority 2013, dated 2019).
Read-outs that look alike come from different tables or passages of the source.

Key:
collagen IV = details: in vivo
Experimental: Data plotted as the group median±interquartile range. N=30 for each group. […] (FIG. 17F) Western blot of isolated NC1 domain from larvae treated as in (E), probed with an anti-Drosophila NC1 polyclonal antibody (Extended Experimental Methods). Associated larval Br-content was measured by EINAA. Bonds/hexamer were calculated from the Western blot.
In Br-free^DEP conditions, the inventors assessed the impact of Br-deficiency on crosslink formation in vivo. The inventors used vkg^454-GFP flies in which the single collagen IV α2 gene locus contains a GFP insertion near the 7S domain. vkg^454-GFP flies were grown on Br-free^DEP, Br-added^DEP and standard diets and biochemically assayed sulfilamine-bond content via immunoblot.

[1] = cited from earlier work
human peroxidasin = human peroxidasin (Homo sapiens, UniProt Q92626); details: compared with reagent-grade PBS (FIG. 8D)
Chain of human peroxidasin (Q92626 27-1479): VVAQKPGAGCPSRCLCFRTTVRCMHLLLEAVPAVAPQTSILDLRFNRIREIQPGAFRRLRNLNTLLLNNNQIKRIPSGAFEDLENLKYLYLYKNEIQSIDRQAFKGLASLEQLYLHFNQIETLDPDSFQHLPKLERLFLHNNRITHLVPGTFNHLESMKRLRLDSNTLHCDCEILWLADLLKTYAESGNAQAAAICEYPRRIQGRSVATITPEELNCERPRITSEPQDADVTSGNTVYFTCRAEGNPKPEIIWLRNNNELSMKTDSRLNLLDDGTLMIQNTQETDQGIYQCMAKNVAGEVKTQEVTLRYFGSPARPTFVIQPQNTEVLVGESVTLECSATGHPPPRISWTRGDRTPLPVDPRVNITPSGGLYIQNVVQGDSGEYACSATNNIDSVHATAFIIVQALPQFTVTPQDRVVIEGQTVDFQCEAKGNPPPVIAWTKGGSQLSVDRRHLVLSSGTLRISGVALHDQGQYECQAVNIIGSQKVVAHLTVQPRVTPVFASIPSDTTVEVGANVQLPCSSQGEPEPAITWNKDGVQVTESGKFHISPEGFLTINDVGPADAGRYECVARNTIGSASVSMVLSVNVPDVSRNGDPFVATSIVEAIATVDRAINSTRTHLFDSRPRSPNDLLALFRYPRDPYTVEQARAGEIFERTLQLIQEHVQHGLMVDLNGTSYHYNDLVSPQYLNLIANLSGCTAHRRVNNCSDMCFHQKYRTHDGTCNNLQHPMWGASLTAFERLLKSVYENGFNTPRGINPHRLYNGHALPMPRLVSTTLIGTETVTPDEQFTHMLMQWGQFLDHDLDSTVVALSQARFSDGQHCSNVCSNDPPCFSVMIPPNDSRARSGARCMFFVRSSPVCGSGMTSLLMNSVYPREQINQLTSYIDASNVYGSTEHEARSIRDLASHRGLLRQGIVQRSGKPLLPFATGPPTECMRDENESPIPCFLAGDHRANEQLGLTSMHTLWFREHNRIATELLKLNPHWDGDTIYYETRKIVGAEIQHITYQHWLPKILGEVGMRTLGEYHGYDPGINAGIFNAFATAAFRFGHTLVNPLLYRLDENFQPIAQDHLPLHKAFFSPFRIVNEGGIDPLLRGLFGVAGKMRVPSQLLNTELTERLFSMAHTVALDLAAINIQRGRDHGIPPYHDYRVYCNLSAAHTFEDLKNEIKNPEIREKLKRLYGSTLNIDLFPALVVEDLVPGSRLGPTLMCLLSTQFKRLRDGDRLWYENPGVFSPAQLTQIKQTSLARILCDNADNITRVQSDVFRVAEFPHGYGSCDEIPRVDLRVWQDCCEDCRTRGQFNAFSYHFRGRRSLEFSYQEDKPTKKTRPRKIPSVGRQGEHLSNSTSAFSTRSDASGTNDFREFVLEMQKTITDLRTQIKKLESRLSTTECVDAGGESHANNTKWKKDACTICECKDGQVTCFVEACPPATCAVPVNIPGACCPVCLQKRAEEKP
Experimental: (FIG. 8A) Matrix pellets isolated from KI-treated PFHR9 cell culture were extensively washed into 10 mM phosphate buffer (pH 7.4) supplemented with 100 mM KF to maintain ionic strength. Potassium salts of Cl— or Br— were added in indicated amounts. 1 hr reactions at 37° C. were initiated by addition of H2O2 to 1 mM and stopped by freezing at −20° C. […] Reagent KCl was commercially obtained and unaltered prior to analysis. 100 mM solutions were made with 18MΩ deionized water. (FIG. 8C) Coomassie blue stained gel of collagenase digested PFHR-9 matrix reaction assay. Reaction buffered contained 10 mM phosphate buffer (pH 7.4), 100 mM Br-Free or Commercially obtained reagent grade KCl, as well as 1 mM H2O2 and 200 μM PHG where appropriate. […] Reactions were run for 10 minutes at 37° C. with 10 μM H2O2 as the terminal oxidant. Dose-response curve run in the presence of 1× Br-Free PBS. Reactions were quenched with 0.2 mg/ml Catalase, 20 mM Methionine, and 1 mM PHG. EC50 value±95% C.I. from two independent experiments with each data point plotted and fit.
HEK293 cells stably transfected with the human peroxidasin coding sequence27 were grown to confluency, and the medium was changed to serum-free DMEM/F12 plus 5 μM hematin plus 5 mM sodium butyrate. […]

Experimental for PFHR-9 cells: (FIG. 10A) The murine PFHR-9 cell-culture model of basement membranes was cultured for 7 days in the presence of either commercial DMEM+5% FBS or adapted Br-Free DMEM +5% FBS dialyzed against Br-Free HBSS. Media was changed every 24 hours with the addition of 50 μg/ml ascorbic acid and NaBr added where noted. The cell deposited matrix was harvested, collagenase digested, and subjected to SDS-PAGE. NC1 crosslinking content is graphed as the mean±95% C.I. (n=3) with a representative gel depicted.
Bromine was systematically eliminated from DMEM by making the media from individual components without chloride counter ions, and using Br-Free chloride as the only halide source.

## Br [bromide]
Collagen IV
  sulfilimine-bond content in larvae: rescued
PFHR-9 cells
  S═N crosslinking in the collagen IV matrix: rescued physiologic levels of crosslinking
  cell proliferation, viability, collagen IV synthesis: no observable difference in cell proliferation, viability, or collagen IV synthesis
[1]; in vivo
  bromide level at which Bromism occurs: > 12 mmol/L
  half-life in the human body: 12 days
[1]
  serum bromide level at which toxicity (bromism) occurs: ~12 mM
[1]; listed as Br^−
  serum bromide level at which toxicity (bromism) occurs: > 12 mM
Human peroxidasin
  S═N bond formation on Br addition to Br-Free PBS: recued the degree of S═N bond formation observed in reagent-grade PBS
